From patent US12187705B2, “Heteroaryl-triazole and heteroaryl-tetrazole compounds as pesticides” (Bayer Aktiengesellschaft, priority 2018, dated 2025)

Legend:
Assay type in all cases: in vivo
[1] = tested on: Nilaparvata lugens; experiment: Nilaparvata lugens spray test; settings: Nilaparvata lugens, in Oryza sativa, 96 h
Method: Nilaparvata lugens—Spray Test
(§1) To produce a suitable preparation of active compound, 1 part by weight of active compound is mixed with the stated amount of solvents and is diluted with water, containing an emulsifier concentration of 1000 ppm, to the desired concentration. Further test concentrations are prepared by dilution with emulsifier containing water.
Rice plants (Oryza sativa) are sprayed with a preparation of the active ingredient of the desired concentration and the plants are infested with the brown planthopper (Nilaparvata lugens).
After 4 days mortality in % is determined. 100% means all planthoppers have been killed and 0% means none of the planthoppers have been killed.

[2] = tested on: Ctenocephalides felis; experiment: Ctenocephalides felis in-vitro contact test adult cat flea; settings: Ctenocephalides felis; 5 μg/cm^2 (=500 g/ha), after 48 hours; read-out: efficacy (fleas dead or moribund)
Outline: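 Efficacy (% dead or moribund) was scored 48 h after adult Ctenocephalides felis were confined in tubes coated with the acetone-applied compound (900 ppm, 5 μg/cm^2). Moribund status was judged by failure to escape a 45-50° C heating plate within 5 minutes.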

[3] = tested on: Myzus persicae; experiment: Myzus persicae spray test; settings: in Brassica rapa, foliar, 120 h
Method: Myzus persicae—Spray Test
as §1
Chinese cabbage (Brassica pekinensis) leaf disks infected with all instars of the green peach aphid (Myzus persicae), are sprayed with a preparation of the active ingredient of the desired concentration.
After 5 days mortality in % is determined. 100% means all aphids have been killed and 0% means none of the aphids have been killed.

[4] = tested on: Myzus persicae; experiment: Myzus persicae oral test; settings: 120 h
Outline: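 Feeding test: compound diluted in water was combined with IPL41 insect medium (33%+15% sugar) under a parafilm seal. A mixed population of green peach aphids fed through the membrane. Mortality (%) was scored after 5 days.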

[5] = tested on: Diabrotica balteata; experiment: Diabrotica balteata spray test; settings: Diabrotica balteata, 168 h; 160 μg/well, wheat seeds, after 7 days; read-out: efficacy (seedlings grown)
Outline: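 Efficacy (%) read 7 days after infesting treated seedlings with 10-20 banded cucumber beetle larvae, 100% meaning growth as in uninfected untreated control and 0% no growth. Test solutions in water containing 1000 ppm emulsifier were sprayed onto wheat seeds germinated for 1 day on agar.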

[6] = tested on: Nezara viridula; experiment: Nezara viridula spray test; settings: in Hordeum vulgare, 96 h
Outline: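 Barley plants infested with stink bug larvae were sprayed with compound diluted in water containing 1000 ppm emulsifier. Mortality (%) was scored after 4 days, 100% meaning all bugs killed.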

[7] = tested on: Boophilus microplus; experiment: Boophilus microplus injection test; settings: Rhipicephalus microplus, 168 h, 20 μg/animal, egg deposition after 7 days, read-out: efficacy (infertile eggs)
Outline: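 Efficacy expresses the share of infertile eggs (100% all infertile, 0% all fertile), judged at 7 days or at hatching around day 42. Five adult engorged females were each injected abdominally with 1 μl of DMSO compound solution and incubated in a climate chamber.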

[8] = tested on: Ctenocephalides felis; experiment: Ctenocephalides felis oral test; settings: Ctenocephalides felis, in Bos taurus, po, 48 h
Outline: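 About 20 adult unfed fleas fed through parafilm on cattle blood containing compound (DMSO concentrate diluted in blood); blood held at 37° C., fleas at room temperature. Mortality in % scored after 2 days (100% = all killed).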

[9] = tested on: Aedes aegypti strain MONHEIM; experiment: Aedes aegypti test (AEDSAE surface treatment & contact assay); settings: 24 hours after contact, read-out: efficacy (mortality); for mortality at 4 mg/m2: surface concentration 4 mg/m^2, 30 minutes exposure; for mortality at 20 mg/m2: surface concentration 20 mg/m^2, 30 minutes exposure
Outline: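 Compound dissolved in acetone (2 mg/ml) with 2000 ppm rapeseed oil methyl ester and dried onto a glazed tile. Adult mosquitoes held on the treated surface for 30 minutes exposure. Percent mortality scored 24 hours after contact.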

[10] = tested on: Musca domestica strain WHO-N; experiment: Musca domestica test (MUSCDO surface treatment & contact assay); settings: 24 hours after contact, read-out: efficacy (mortality); for mortality at 20 mg/m2: surface concentration 20 mg/m^2, 30 minutes exposure
Method: Musca domestica Test (MUSCDO Surface Treatment & Contact Assay)
(§2) Solvent: Aceton+2000 ppm rapeseed oil methyl ester (RME)
In order to produce a sufficient, active ingredient containing solution it is necessary to solve the test-compound in the solvent-mix (Acetone at 2 mg/ml/RME 2000 ppm). This solution is pipetted onto a glazed tile and after evaporation of the Acetone, adult flies of the species Musca domestica strain WHO-N are placed onto the dried surface. The exposure time is 30 minutes.
(§3) Mortality in percent (%) is determined 24 hours after contact to the treated surface. 100% mortality means that all test-insects are dead, whereas 0% means that not a single insect died.

[11] = tested on: Spodoptera frugiperda; experiment: Spodoptera frugiperda spray test; settings: in Zea mays, 168 h
Method: Spodoptera frugiperda—Spray Test
as §1
Maize (Zea mays) leaf sections are sprayed with a preparation of the active ingredient of the desired concentration. Once dry, the leaf sections are infested with fall armyworm larvae (Spodoptera frugiperda).
After 7 days mortality in % is determined. 100% means all caterpillars have been killed and 0% means none of the caterpillars have been killed.

[12] = tested on: Culex quinquefasciatus strain P00; experiment: Culex quinquefasciatus test (CULXFA surface treatment & contact assay); settings: 24 hours after contact, read-out: efficacy (mortality); for mortality at 4 mg/m2: surface concentration 4 mg/m^2, 30 minutes exposure; for mortality at 20 mg/m2: surface concentration 20 mg/m^2, 30 minutes exposure
Outline: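 Compound dissolved in acetone (2 mg/ml) with 2000 ppm rapeseed oil methyl ester, applied to glazed tile and dried. Adult strain P00 mosquitoes exposed to the surface for 30 minutes. Percent mortality scored 24 hours after contact.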

[13] = tested on: Anopheles funestus strain FUMOZ-R; experiment: Anopheles funestus test (ANPHFU surface treatment & contact assay); settings: 24 hours after contact, read-out: efficacy (mortality); for mortality at 4 mg/m2: surface concentration 4 mg/m^2, 30 minutes exposure; for mortality at 20 mg/m2: surface concentration 20 mg/m^2, 30 minutes exposure
Method: Anopheles funestus Test (ANPHFU Surface Treatment & Contact Assay)
as §2
In order to produce a sufficient, active ingredient containing solution it is necessary to solve the test-compound in the solvent-mix (Acetone at 2 mg/ml/RME 2000 ppm). This solution is pipetted onto a glazed tile and after evaporation of the Acetone, adult mosquitoes of the species Anopheles funestus strain FUMOZ-R (Hunt et al., Med Vet Entomol. 2005 September; 19(3):271-5) are placed onto the dried surface. The exposure time is 30 minutes.
as §3

Structure (SMILES) | mortality at 500 g/ha [1] | pest or weed control at 5 µg/cm2, 5 µg/cm2 [2] | mortality at 500 g/ha [3] | mortality at 4 ppm [4] | pest or weed control at 160 µg/disc, 160 µg/well [5] | mortality at 500 g/ha [6] | pest or weed control at 0.02 mg [7] | mortality at 100 ppm [8] | mortality at 4 mg/m2 [9] | mortality at 20 mg/m2 [9] | mortality at 20 mg/m2 [10] | mortality at 500 g/ha [11] | mortality at 4 mg/m2 [12] | mortality at 20 mg/m2 [12] | mortality at 4 mg/m2 ([10]; surface concentration 4 mg/m^2, 30 minutes exposure) | mortality at 4 mg/m2 [13] | mortality at 20 mg/m2 [13]
CC(c1ncnn1-c1ncccn1)N(CCC(F)(F)F)C(=O)c1cc(Cl)cc(S(C)(=O)=O)c1 (centres unmarked) [Example I-039] | 100% | 100% | 100% | 100% | 100% | 100% | 100% | 100% |  |  |  |  |  |  |  |  | 
C[C@@H](NC(=O)c1cc(Cl)cc(S(=O)(=O)c2ccc(F)cc2)c1)c1ncnn1-c1ncccn1 [Example I-043] | 100% | 90% | 90% | 100% | 100% | 100% | 100% | 100% | 80 to 100% | 90 to 100% | 80 to 100% | 100% | 80 to 100% | 80 to 100% |  |  | 
C[C@@H](NC(=O)c1cc(Cl)cc(S(=O)(=O)C(F)(F)F)c1)c1ncnn1-c1ccc(C#N)cn1 [Example I-067] |  | 90% |  | 100% | 100% | 100% | 80% | 100% | 80 to 100% | 90 to 100% | 80 to 100% | 100% | 80 to 100% | 80 to 100% |  |  | 
C[C@@H](NC(=O)c1cc(Cl)cc(S(=O)(=O)C(F)(F)F)c1)c1ncnn1-c1ccccn1 [Example I-068] |  | 90% |  | 90% | 100% | 100% | 100% | 100% | 80 to 100% | 90 to 100% | 80 to 100% | 100% | 80 to 100% | 80 to 100% | 80 to 100% | 85 to 100% | 85 to 100%
C[C@@H](NC(=O)c1cc(Cl)cc([S+](C)[O-])c1)c1ncnn1-c1ccc(C#N)cn1 (some centres unmarked) [Example I-070] |  | 100% | 100% | 100% | 100% | 100% | 100% | 100% | 80 to 100% | 90 to 100% | 80 to 100% | 100% | 80 to 100% | 80 to 100% |  | 85 to 100% | 85 to 100%
C[C@@H](NC(=O)c1cc(Cl)cc(S(=O)(=O)C(F)(F)F)c1)c1ncnn1-c1cnccn1 [Example I-074] |  | 90% | 90% | 100% | 100% | 100% | 100% | 100% |  | 90 to 100% | 80 to 100% | 100% |  | 80 to 100% |  |  | 
C[C@@H](NC(=O)c1cc(Cl)cc(S(=O)(=O)C(F)(F)F)c1)c1ncnn1-c1ncc(F)cc1F [Example I-078] |  |  |  |  | 100% | 100% |  |  | 80 to 100% | 90 to 100% | 80 to 100% | 100% | 80 to 100% | 80 to 100% |  |  | 85 to 100%
C[C@H](NC(=O)c1cc(Cl)cc(S(C)(=O)=O)c1)c1nc(C(F)(F)F)nn1-c1ncccn1 [Example I-091, 3-chloro-N-{(1S)-1-[1-(2-pyrimidinyl)-3-(trifluoromethyl)-1H-1,2,4-triazol-5-yl]ethyl}-5-(methylsulfonyl)benzamide] |  | 100% | 90% | 100% | 100% | 100% |  | 100% | 80 to 100% | 90 to 100% |  | 83% | 80 to 100% | 80 to 100% |  |  | 85 to 100%
C[C@H](NC(=O)c1cc(Cl)cc([S+]([O-])CC(F)(F)F)c1)c1ncnn1-c1ncccn1 (stereo partly drawn) [Example I-092, 3-chloro-N-{(1S)-1-[1-(pyrimidin-2-yl)-1H-1,2,4-triazol-5-yl]ethyl}-5-[(2,2,2-trifluoroethyl)sulfinyl]benzamide] | 100% | 80% | 100% | 100% | 100% | 100% |  |  | 80 to 100% | 90 to 100% |  |  | 80 to 100% | 80 to 100% |  | 85 to 100% | 
